The record followed here is BindingDB's records for doi:10.1016/s0960-894x(02)01041-7 (Seoul National University, 2003).

A word on the IC50: it is the concentration that gives 50% inhibition.

The test has as its target HT-29 cell line (Homo sapiens). Briefly: In vitro antiproliferative activity of compound against HT-29 (human colon caner ) cell line was determined by SRB assay. For orientation: The SRB assay estimates cell density from bound dye.

With `N#Cc1ccc(C=O)nc1SCc1c(Cl)cccc1Cl` [2-(2,6-Dichloro-benzylsulfanyl)-6-formyl-nicotinonitrile], the IC50 was found to be 113 µM.

`O=Cc1cccc(C(=O)Sc2ccc(Cl)c(Cl)c2)n1` [6-Formyl-pyridine-2-carbothioic acid S-(3,4-dichloro-phenyl) ester] came in with a concentration for half-maximal inhibition (IC50) of 33.1 µM.
